Results reported in US9708314B2, “Heterocyclic amide compound” (NISSAN CHEMICAL INDUSTRIES, LTD., priority 2013, dated 2017).
Values belong to the compound of their own block, whether it stands above or below them.

What was measured:
[1] = tested on: directly sowed Oryza sativa; assay: Test Example 3: effect on crop by application to foliage (Wagner pot, water depth 0.1-0.5 cm); assay type: in vivo; details: Nineteenth Table; application to foliage; application herbicide amount 320 g/ha
In short: (§1)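 Foliar spray, 14-day-old plants, emulsion diluted to target g/ha; rated 3 wk post-application, 0–5 scale (0 ≤5%, 5 ≥90% herbicidal ratio). Greenhouse 25–30 °C, alluvial soil.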

Cyperus difformis = assay: Test Example 3: herbicidal effect by application to foliage (Wagner pot, water depth 0.1-0.5 cm); assay type: in vivo; details: Nineteenth Table; application to foliage; application herbicide amount 320 g/ha
In short: as §1

[2] = tested on: Echinochloa crus-galli var. crus-galli; assay: as above; assay type: in vivo; details: Nineteenth Table; application to foliage; application herbicide amount 320 g/ha
In short: as §1

Leptochloa chinensis = assay: as above; assay type: in vivo; details: Nineteenth Table; application to foliage; application herbicide amount 320 g/ha
In short: as §1

Monochoria vaginalis = assay: Test Example 2: herbicidal activity, application during weed generation in submerged conditions; assay type: in vivo; details: Eighteenth Table; application herbicide amount 320 g/ha
In short: (§2)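 Scored three weeks post-application on a 0–5 scale (5: ≥90% herbicidal ratio, almost withered; 0: ≤5%). Plants raised from mixed-sown seed in submerged alluvial soil (4 cm water), 25–30 °C greenhouse; water-diluted emulsion applied onto water surface at one- to two-leaf stage, dose in g/ha.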

[3] = tested on: Echinochloa oryzacola Vasing.; assay: as above; assay type: in vivo; details: Eighteenth Table; application herbicide amount 320 g/ha
In short: as §2

Scirpus juncoides = assay: as above; assay type: in vivo; details: Eighteenth Table; application herbicide amount 320 g/ha
In short: as §2

- melting point: 205 to 209 °C
Compound: COCc1nnc2c(C(=O)Nc3nnnn3C)ccc(C(F)(F)F)n12 [2-010, 3-(Methoxymethyl)-N-(1-methyl-1H-tetrazol-5-yl)-5-(trifluoromethyl)-[1,2,4]triazol o[4,3-a]pyridine-8-carboxamide]
- b (effect on crop grade) [1]: 5 (Herbicidal ratio of 90% or more (almost completely withered))
- E (herbicidal effect grade) (Cyperus difformis): 5 (Herbicidal ratio of 90% or more (almost completely withered))
- H (herbicidal effect grade) [2]: 5 (Herbicidal ratio of 90% or more (almost completely withered))
- D (herbicidal effect grade) (Leptochloa chinensis): 5 (Herbicidal ratio of 90% or more (almost completely withered))
- C (Monochoria vaginalis) herbicidal ratio grade (Monochoria vaginalis): 4 (Herbicidal ratio of 70% or more and less than 90%)
- A (Echinochloa oryzicola Vasing.) herbicidal ratio grade [3]: 5 (Herbicidal ratio of 90% or more (almost completely withered))
- B (Scirpus juncoides) herbicidal ratio grade (Scirpus juncoides): 4 (Herbicidal ratio of 70% or more and less than 90%)

Compound: CSCc1nnc2c(C(=O)Nc3nnnn3C)ccc(C(F)(F)F)n12 [2-029]
- b (effect on crop grade) [1]: 5 (Herbicidal ratio of 90% or more (almost completely withered))
- E (herbicidal effect grade) (Cyperus difformis): 5 (Herbicidal ratio of 90% or more (almost completely withered))
- H (herbicidal effect grade) [2]: 5 (Herbicidal ratio of 90% or more (almost completely withered))
- D (herbicidal effect grade) (Leptochloa chinensis): 5 (Herbicidal ratio of 90% or more (almost completely withered))
- C (Monochoria vaginalis) herbicidal ratio grade (Monochoria vaginalis): 4 (Herbicidal ratio of 70% or more and less than 90%)
- A (Echinochloa oryzicola Vasing.) herbicidal ratio grade [3]: 5 (Herbicidal ratio of 90% or more (almost completely withered))
- B (Scirpus juncoides) herbicidal ratio grade (Scirpus juncoides): 4 (Herbicidal ratio of 70% or more and less than 90%)

Compound: Cn1nnnc1NC(=O)c1ccc(C(F)(F)F)n2c(CSCC(F)(F)F)nnc12 [2-030]
- b (effect on crop grade) [1]: 5 (Herbicidal ratio of 90% or more (almost completely withered))
- E (herbicidal effect grade) (Cyperus difformis): 4 (Herbicidal ratio of 70% or more and less than 90%)
- H (herbicidal effect grade) [2]: 4 (Herbicidal ratio of 70% or more and less than 90%)
- D (herbicidal effect grade) (Leptochloa chinensis): 5 (Herbicidal ratio of 90% or more (almost completely withered))
- C (Monochoria vaginalis) herbicidal ratio grade (Monochoria vaginalis): 4 (Herbicidal ratio of 70% or more and less than 90%)
- A (Echinochloa oryzicola Vasing.) herbicidal ratio grade [3]: 4 (Herbicidal ratio of 70% or more and less than 90%)
- B (Scirpus juncoides) herbicidal ratio grade (Scirpus juncoides): 3 (Herbicidal ratio of 40% or more and less than 70%)

Compound: CC[S+]([O-])c1nnc2c(C(=O)Nc3nnnn3C)ccc(C(F)(F)F)n12 (stereo not shown) [2-031]
- b (effect on crop grade) [1]: 5 (Herbicidal ratio of 90% or more (almost completely withered))
- E (herbicidal effect grade) (Cyperus difformis): 5 (Herbicidal ratio of 90% or more (almost completely withered))
- H (herbicidal effect grade) [2]: 5 (Herbicidal ratio of 90% or more (almost completely withered))
- D (herbicidal effect grade) (Leptochloa chinensis): 5 (Herbicidal ratio of 90% or more (almost completely withered))
- C (Monochoria vaginalis) herbicidal ratio grade (Monochoria vaginalis): 4 (Herbicidal ratio of 70% or more and less than 90%)
- A (Echinochloa oryzicola Vasing.) herbicidal ratio grade [3]: 5 (Herbicidal ratio of 90% or more (almost completely withered))
- B (Scirpus juncoides) herbicidal ratio grade (Scirpus juncoides): 4 (Herbicidal ratio of 70% or more and less than 90%)

Compound: CC(C)[S+]([O-])c1nnc2c(C(=O)Nc3nnnn3C)ccc(C(F)(F)F)n12 (stereo not shown) [2-032]
- b (effect on crop grade) [1]: 5 (Herbicidal ratio of 90% or more (almost completely withered))
- E (herbicidal effect grade) (Cyperus difformis): 5 (Herbicidal ratio of 90% or more (almost completely withered))
- H (herbicidal effect grade) [2]: 5 (Herbicidal ratio of 90% or more (almost completely withered))
- D (herbicidal effect grade) (Leptochloa chinensis): 5 (Herbicidal ratio of 90% or more (almost completely withered))
- C (Monochoria vaginalis) herbicidal ratio grade (Monochoria vaginalis): 5 (Herbicidal ratio of 90% or more (almost completely withered))
- A (Echinochloa oryzicola Vasing.) herbicidal ratio grade [3]: 5 (Herbicidal ratio of 90% or more (almost completely withered))
- B (Scirpus juncoides) herbicidal ratio grade (Scirpus juncoides): 5 (Herbicidal ratio of 90% or more (almost completely withered))

Compound: Cn1nnnc1NC(=O)c1ccc(C(F)(F)F)n2c(C[S+](C)[O-])nnc12 (stereo not shown) [2-033]
- b (effect on crop grade) [1]: 5 (Herbicidal ratio of 90% or more (almost completely withered))
- E (herbicidal effect grade) (Cyperus difformis): 5 (Herbicidal ratio of 90% or more (almost completely withered))
- H (herbicidal effect grade) [2]: 5 (Herbicidal ratio of 90% or more (almost completely withered))
- D (herbicidal effect grade) (Leptochloa chinensis): 5 (Herbicidal ratio of 90% or more (almost completely withered))
- C (Monochoria vaginalis) herbicidal ratio grade (Monochoria vaginalis): 4 (Herbicidal ratio of 70% or more and less than 90%)
- A (Echinochloa oryzicola Vasing.) herbicidal ratio grade [3]: 4 (Herbicidal ratio of 70% or more and less than 90%)
- B (Scirpus juncoides) herbicidal ratio grade (Scirpus juncoides): 3 (Herbicidal ratio of 40% or more and less than 70%)
